Data set [1] is classed as in vitro ADME, beagle dog. The conditions noted are these: all four storage conditions, 2.5, 50 and 150 ng/mL.
The next data set has as its system CYP2D6. Particulars: in vitro; cited from earlier work.
The next data set has as its system CYP3A. Particulars: in vitro; cited from earlier work.

Here are results for 1 compound from article PMC8495142 (Drug Design, Development and Therapy, 2021).

For the compound `CC[C@@H]1CN(C(=O)NCC(F)(F)F)C[C@@H]1c1cnc2cnc3[nH]ccc3n12` [Upadacitinib], the “Stability in beagle dog plasma (in words)” value in data set [1] was “stable”. The “Metabolism by CYP2D6” value in the data set with CYP2D6 was “a small part by CYP2D6”. In addition, the “Metabolism by CYP3A” value with CYP3A was “mainly metabolized by CYP3A”.
